Structures are written as SMILES.

A short description of series [1]: Competitive reactivity study between L-Lysine and HOA nucleophile. The following applies: L-Lysine 5 eq. / N-Hydroxy-N-methyl benzamide 1 eq. How it is done:
(§1) General Experimental Protocol for Competitive Reactivity Study with L-Lysine and HOPO or HOA Nucleophiles
(§2) To a 4 mL scintillation vial containing Compound A (1 eq.) was added a stir bar followed by 70 μL of HPLC grade acetonitrile followed by a respective HOPO or HOA nucleophile (1 eq). In another 4 mL scintillation vial containing L-Lysine monohydrochloride (5 eq.) was added 130 μL HPLC grade water followed by diisopropylethylamine (5 eq.). The solutions were combined and allowed to stir at room temperature (22±2° C.) for 4 hours. Timed aliquots at time (T)=15, 30, 60, 120 and 240 minutes were taken and analyzed by HPLC-MS using elution method 1 (Table 7)

A short description of series [2]: Temperature stability study in H2O. It counts as physicochemical. The procedure:
20° C.: To a 4 mL scintillation vial containing Compound A-E (in respective experiments; 0.8 mg) was added 4 mL of HPLC grade water to create a 0.2 mg/mL solution. 2 mL of this solution was added to a 2 mL HPLC vial and placed in the auto sampler of an HPLC-MS at 20° C. Timed aliquots at time (T)=15, 30, 60, 120, 240 and 480 minutes were taken and analyzed by HPLC-MS using elution method 1 (Table 4).
50° C.: To a 4 mL scintillation vial containing Compound A-E (in respective experiments; 0.8 mg) was added a stir bar followed by 4 mL of HPLC grade water to create a 0.2 mg/mL solution. The vial was capped and allowed to stir in a 50° C. oil bath for 8 hours. Timed aliquots at time (T) =15, 30, 60, 120, 240 and 480 minutes were taken and analyzed by HPLC-MS using elution method 1 (Table 4).

The nature of series [3]: Competitive reactivity study between L-Lysine and HOPO nucleophile. To be noted: L-Lysine 5 eq. / 1,2-HOPO 1 eq. The procedure: as §1, §2

Take `O=C(CCc1cccnc1)Oc1c(Cl)cccc1Cl` [Compound A, 2,6-Dichlorophenyl-3-(pyridin-3-yl)propanoate]: the “% Compound A Remaining” value in series [1] (15 min) is “(65.77) %”; in series [1] (30 min), “(14.83) %”; in series [1] (60 min) it was “(1.63) %”; in series [1] (120 min) it was “(0) %”; in series [3] (15 min) it was “(88.33) %”; in series [3] (30 min) it was “(74.52) %”. Also, the figures for the “% Compound A Remaining” value in series [3] (60 min), in series [3] (120 min) and in series [3] (240 min) were “(28.29) %”, “(2.01) %” and “(0) %”, respectively. Moreover, the “% Remaining” value in series [2] (20° C., 15 min) was 100%; in series [2] (20° C., 30 min), 100%; in series [2] (20° C., 60 min) it was 100%; in series [2] (20° C., 120 min), 100%; in series [2] (20° C., 240 min), 100%; in series [2] (20° C., 480 min) it was 100%. For the same compound, the “% Remaining” value in series [2] (50° C., 15 min) came to 96.12%; in series [2] (50° C., 30 min), 92.86%; in series [2] (50° C., 60 min), 88.94%; in series [2] (50° C., 120 min), 84.24%; in series [2] (50° C., 240 min), 82.50%; in series [2] (50° C., 480 min), 81.87%.
Take `O=C(CCc1cccnc1)Oc1c(F)c(F)cc(F)c1F` [Compound C, 2,3,5,6-Tetrafluorophenyl-3-(pyridin-3-yl)propanoate]: the “% Remaining” value in series [2] (20° C., 15 min) was found to be 95.77%; in series [2] (20° C., 30 min), 91.82%; in series [2] (20° C., 60 min), 87.38%; in series [2] (20° C., 120 min) it was 81.04%; in series [2] (20° C., 240 min), 70.85%; in series [2] (20° C., 480 min), 56.62%. For the same compound, the “% Remaining” value in series [2] (50° C., 15 min) worked out at 79.21%; in series [2] (50° C., 30 min), 74.51%; in series [2] (50° C., 60 min) it was 65.73%; in series [2] (50° C., 120 min) it was 42.50%; in series [2] (50° C., 240 min), 6.78%; in series [2] (50° C., 480 min) it was 2.35%.

The values above are taken from US20240139333A1, “2,6-DICHLOROPHENYL ESTER COMPOUNDS AND USE THEREOF” (Fusion Pharmaceuticals Inc., priority 2021, published 2024).
